Reference: publication PMC11738990, “A small-molecule TNIK inhibitor targets fibrosis in preclinical and clinical models” (Nature Biotechnology, 2024)
pIC50: −log10 of the molar value. Several values for one entry are separate records, joined by “and”; a condition that tells them apart may be missing. Identical values can stand only once.

Tests used:
NHDF cells = assay: α-SMA evaluation in NHDF; format: cell-based, human; details: TGF-β 0.1 ng/ml, 72 h; read-out: IC50, α-SMA expression
Procedure: The medium was then replaced with an assay medium containing or lacking (control conditions) the test compound, and TGF-β (0.1 ng ml^−1) was added or not (unstimulated control). […] All experimental conditions were performed in five replicates. For in situ immunolabeling and image analysis, at the end of the incubation, fibroblasts were rinsed, fixed and permeabilized. […] Image acquisition was performed using a high-resolution imaging system, the IN Cell Analyzer 2200 (GE Healthcare) automated microscope (objective lens, ×20). Five pictures per well were taken. Labeling was quantified by measuring the fluorescence intensity of α-SMA signals normalized to the total number of nuclei identified (integration of numerical data was performed with the Developer Toolbox 1.5, GE Healthcare software).

C57BL/6 mice [1] = assay: Bleomycin-induced lung fibrosis model; format: in vivo, mouse; details: for HE staining (inflammation area) / IL-1beta in BALF / IL-6 in BALF / monocytes, cell count in BALF / neutrophils, cell count in BALF / Lung function (Penh) / Masson Trichrome's staining / Modified Ashcroft Score / collagen I / α-SMA: individual animals; for Lung function (Penh) / Masson Trichrome's staining / Modified Ashcroft Score / collagen I / α-SMA: Fig 3B-C
Procedure: Mice received bleomycin on day 1 at a dose of 0.66 mg per kg (equivalent to 1 U per kg), in a volume of 50 μl by intratracheal administration, or received saline (sham group). On day 7, dosing with the corresponding compounds was started. The vehicle group (group 1) was treated with 0.5% methylcellulose BID. […] On days 5 and 21, lung function measurement was performed. On day 28, all animals were killed, and blood and tissue samples were collected along with BALF.
Lung function was measured according to the HDB standard protocol. Expiratory time, relaxation time, peak expiratory flow and peak inspiratory flow were collected and used to calculate Penh data.
Mice were first anesthetized with Zoletil–xylazine (50 mpk and 10 mpk, i.p.). Next, a 1.5–2-cm longitudinal incision was made on the ventral side of the neck to expose the trachea by blunt dissection, and curved forceps were placed underneath the trachea. A 10–12-cm piece of suture was then threaded underneath the trachea using forceps. The ends of the suture were then pulled cranially to ‘stretch’ the trachea toward the surgeon. A 20-G needle was then used to poke a hole in the trachea as close to the larynx as possible. A 22-G blunt stainless steel needle connected to PE tubing was placed in the hole and inserted approximately 5–8 mm into the trachea. The cannula was secured in the trachea by tying the suture around it with an overhand knot. A 1-ml syringe containing 0.4 ml saline was gently pushed forward and backward three times to recover BALF fluid. BALF was transferred into empty tubes and stored on ice. This process was repeated twice with 0.3 ml saline for a total volume of 1 ml.
Total cell numbers were counted with a standard hemocytometer by mixing 20 μl BALF with 20 μl trypan blue. Cytospins were prepared by cytocentrifugation using Cytospins at 106g for 5 min, and then smears of BALF cells were stained with Diff-Quick stain. Cell differentiation was performed by counting at least 400 cells using standard hemocytologic criteria to classify them as alveolar macrophages or monocytes, neutrophils, eosinophils or lymphocytes. The rest of the BALF fluid was centrifuged, and supernatants were collected and stored at −80 °C for cytokine, chemokine and total protein analysis.
From the collected BALF, concentrations of cytokines were measured from mice in groups 2–7 killed on day 28. Mouse BALF cytokines and chemokines were measured using the ELISA Analysis Kit (Sinobest Bio). Mouse BALF soluble collagen was measured using the Soluble Collagen kit (Biocolor). Mouse lung hydroxyproline content was measured using the Hydroxyproline Assay Kit (Njjcbio).
Left lung lobes were removed from each mouse and fixed in 10% NBF solution, embedded in paraffin and processed to obtain 4-μm sections for staining with H&E. H&E-stained slides were scanned using an Aperio ScanScope Model CS2 (Leica) at ×200 magnification. Images were then opened in the HALO Plus 5 workstation (version 2.3, Indica Labs) program. Using the pen annotation tool, the whole-lung section was selected as an annotation layer. The area of vessels was defined as background using the exclusion drawing tool. The total inflammation area was quantified by selecting the dark blue inflammation cells using the pen annotation tool manually. The percentage of H&E staining (inflammation area/total area of the lung) in the selected annotation was then calculated using the program.
Masson’s trichrome staining was conducted using a ready-to-use kit (Trichrome Stain (Masson) Kit, HT15, Sigma-Aldrich) as described by the manufacturer.
Lung sections were cut at a thickness of 4 μm, dried in an oven for 1 h and stained with M&T using our standard protocol.

healthy subjects = details: in vivo
MRC-5 cells = assay: TGF-β-induced α-SMA protein expression, western blot; format: cell-based, human; details: TGF-β1 2 ng/ml, 72 h; read-out: IC50, TGF-β-induced α-SMA/GAPDH
Procedure: MRC-5 cells were cultured in a monolayer with DMEM high-glucose medium supplemented with 10% FBS at 37 °C with 5% CO2. Cells were seeded in six-well plates in three replicate wells per condition at a density of 2.5 × 10^5 cells per well and cultured for 24 h. […] Vehicle (2% FBS–DMEM, containing 0.1% DMSO) was added into the blank control group and the model group, and pre-incubation was continued for 2 h. Next, TGF-β1 was added into each well of the administration group and the model group (final concentration in each well was 2 ng ml^−1), and the same volume of vehicle was added into each well of the blank control group for 72 h of incubation (the culture medium was changed once after 48 h of incubation). After incubation, the cells were collected and digested with 0.5% trypsin, protein was extracted and total protein content was determined by the BCA method.
For whole-cell lysates, cells were collected and lysed on ice for 20 min with RIPA buffer with protease and phosphatase inhibitors (cOmplete and PhosSTOP, Roche). The protein concentration of the cell lysates was determined using the BCA Protein Assay Kit. […] Integrated intensity of bands from 16-bit blot images was used for quantitation with the software Image Studio Lite. Protein-quantification data of two independent experiments were calculated and analyzed using GraphPad.

C57BL/6 mice [2] = assay: Unilateral ureteral obstruction (UUO) kidney fibrosis model; details: for Positive area (%), per mouse: Fig 5B-D Individual Values;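 on all read-outs here: mice had the left ureter ligated on day 0, received treatment from day 0 through day 14 and were killed on day 14 for kidney analysis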
Procedure: The surgery took place on two separate days. Mice were divided into two slots based on their body weight before the day of the surgery. On day 0 (day of surgery), UUO surgery was performed after administration of three types of mixed anesthetic agents (medetomidine, midazolam, butorphanol). Mice were shaved at the incision site, the abdomen was cut open, and the left ureter was exteriorized and ligated with 4-0 silk sutures at two points. Finally, the peritoneum and the skin were closed with sutures.
Treatments were applied from day 0 to day 14. And animals were killed on day 14, and blood and tissue samples were collected.
Frozen kidney samples were processed by an alkaline acid hydrolysis method as follows. […] Next, AC buffer (2.2 M acetic acid and 0.48 M citric acid, 400 μl) was added to the samples, followed by centrifugation to collect the supernatant. […] The samples were then mixed with Ehrlich’s solution (400 μl) and heated at 65 °C for 20 min to develop color. After samples were cooled on ice and centrifuged to remove precipitates, the optical density of each supernatant was measured at 560 nm. Hydroxyproline concentrations were calculated from the hydroxyproline standard curve. Kidney hydroxyproline contents were expressed as μg per mg protein, and the amount of protein was determined using the BCA Protein Assay Kit (Thermo Fisher Scientific).
At the end of the UUO study, the left kidney was fixed in Bouin’s solution and embedded in paraffin. Kidney sections were stained using picro-Sirius red solution (Waldeck). To quantify the interstitial fibrosis area, brightfield images in the corticomedullary region were captured using a digital camera (DFC295) at 200-fold magnification, and the positive areas in five fields per section were measured using ImageJ software (National Institute of Health).
Paraffin sections were deparaffinized and hydrophilized with xylene, 100–70% alcohol series and RO water, and then circles were drawn around the kidney sections. […] After washing with PBS, kidney sections were treated with PBS with Tween-20 (PBST), followed by incubation with Block Ace (DS Pharma Biomedical) at room temperature for 10 min. The sections were incubated with the primary antibody (anti-collagen I) at 4 °C overnight. After washing with PBS, kidney sections were treated with PBST, followed by incubation with secondary antibody at room temperature for 30 min. After washing with PBS, kidney sections were fixed with 1% glutaraldehyde solution at room temperature for 1 min. After washing with RO water, kidney sections were treated with PBST and then colored using a chromogenic substrate (Simple Stain DAB, Nichirei Bioscience). After washing with RO water, kidney sections were immersed in an eightfold-diluted hematoxylin solution for 1 min and washed with RO water immediately. […] For scoring of IHC analyses, brightfield images were captured using a digital camera (DFC295) at 200-fold magnification, and the score in one field per section was determined.

CD-1 mice = details: single IV; ref Insilico Medicine, 2021; cited from earlier work
mice = details: male mice, 180 mg/kg daily; ref Insilico Medicine, 2021; cited from earlier work
[3] = tested on: primary bronchial epithelial cells from donors with IPF; assay: EMT by FN1, high-content analysis; format: cell-based, human; details: three donors with IPF
Procedure: For the measurement of EMT by FN1, on the first day, human primary bronchial epithelial cells were seeded. After 2 d, the medium of the cells was refreshed. […] After 1 h, all cells were treated with 5 ng ml^−1 TGF-β1.
Segmentation and quantification of α-SMA and FN1 immunoreactivity was carried out with an HCA algorithm, with density × area (D × A) output. Data normalization of raw α-SMA or FN1 (D × A) to percent inhibition values was performed on a plate-to-plate basis.
Percent inhibition = (100 − (μp − Xi)/(μp − Xn)) × 100
μp is the average α-SMA or FN1 value of the positive control (TGF-β1 + 1 μM SB525334). μn is the average α-SMA or FN1 value of the vehicle control (TGF-β1 + 0.1% DMSO). Xi is the compound α-SMA or FN1 value. IC50 values for all compounds (if calculable, based on the point of inflection) were calculated with GraphPad Prism using non-linear fit of log (inhibitor) versus response (four parameter).
DAPI fluorescence was applied for HCA-based quantification of the number of imaged cells on a plate-to-plate basis.
Percent remaining cells = (Xi/μn) × 100%
μn is the average number of nuclei of the vehicle control (TGF-β1 + 0.1% DMSO). Xi is the compound number of nuclei.

[4] = G2 INS018_055 3mpk BID, 3 mg/kg
[5] = G3 INS018_055 10mpk BID, 10 mg/kg
[6] = G4 INS018_055 30mpk BID, 30 mg/kg
[7] = INS018_055 3 mg/kg BID, individual animals, Fig 5C-D, 3 mg/kg
[8] = INS018_055 10 mg/kg BID, individual animals, Fig 5C-D, 10 mg/kg
[9] = INS018_055 30 mg/kg BID, individual animals, Fig 5C-D, 30 mg/kg

## CC(C)n1cnc(-c2ccc(F)cc2)c1-c1nc(C(=O)Nc2ccc(N3CCN(C)CC3)cc2)c[nH]1 [INS018_055, 2-[4-(4-fluorophenyl)-1-(prop-2-yl)imidazol-5-yl]-N-[4-(4-methylhexahydropyrazin-1-yl)phenyl]-1H-imidazole-4-carboxamide]
NHDF cells
  pIC50: 7.60
C57BL/6 mice [1]; 3 mg per kg BID
  reduction in fibrotic area vs vehicle: over 50%
C57BL/6 mice [1]; 10 mg per kg BID
  reduction in fibrotic area vs vehicle: more than 75%
C57BL/6 mice [1]; 30 mg per kg BID
  reduction in fibrotic area vs vehicle: more than 75%
C57BL/6 mice [1]; 3mpk BID
  HE staining (inflammation area): 16.35 and 17.87 and 12.71 and 1.09 and 10.2 and 19.47 and 0.4 and 43.83 and 48.17 and 4.33
  IL-1beta in BALF: 154.02 and 147.65 and 144.47 and 164.21 and 155.93 and 168.67 and 177.59
  IL-6 in BALF: 126.67 and 118.83 and 123.05 and 144.15 and 121.24 and 147.77 and 123.65 and 122.44 and 139.33
  monocytes, cell count in BALF: 48000 and 77000 and 128800 and 211900 and 99500 and 150400 and 143100 and 79600 and 62000
  neutrophils, cell count in BALF: 31200 and 500 and 700 and 0 and 1000
C57BL/6 mice [1]; 10mpk BID
  HE staining (inflammation area): 21.7 and 0.11 and 5.58 and 22.87 and 0.24 and 8.94 and 0.45 and 42.15 and 0.46 and 0.26
  IL-1beta in BALF: 241.92 and 204.98 and 199.25 and 226 and 212.62 and 229.18 and 207.53 and 202.43 and 189.69 and 227.91
  IL-6 in BALF: 201.44 and 191.8 and 156.22 and 187.57 and 178.53 and 200.84 and 157.42 and 203.86 and 172.5
  monocytes, cell count in BALF: 40000 and 80000 and 116200 and 4200 and 172000 and 84000 and 29600 and 114100 and 79200 and 38100
  neutrophils, cell count in BALF: 500 and 0 and 200 and 700
C57BL/6 mice [1]; 30mpk BID
  HE staining (inflammation area): 48.7 and 0.62 and 0.2 and 3.2 and 0.42 and 0.24 and 10.41 and 0.95 and 7.2 and 3.59
  IL-1beta in BALF: 205.62 and 188.42 and 203.7 and 211.35 and 200.52 and 228.54 and 189.06 and 180.78 and 190.33 and 224.09
  IL-6 in BALF: 147.17 and 151.39 and 139.93 and 159.83 and 139.33 and 174.91 and 170.69 and 171.9 and 168.28
  monocytes, cell count in BALF: 53400 and 20000 and 196300 and 26700 and 124800 and 27500 and 26500 and 61600 and 54600
  neutrophils, cell count in BALF: 0 and 400 and 1300 and 900
C57BL/6 mice [1]; [4]
  Lung function (Penh): 0.6758 and 0.6536 and 0.6784 and 0.8035 and 0.7941 and 0.8536 and 2.1862 and 0.7195 and 0.614 and 0.4863 and 3.086 and 0.8355 and 0.9151
  Masson Trichrome's staining: 13.42 and 12.85 and 13.06 and 0.67 and 7.67 and 20.55 and 0.21 and 52.81 and 60.17 and 6.1
  Modified Ashcroft Score: 4.5 and 1.5 and 6 and 3.25
  collagen I: 1.64 and 0.35 and 0.02 and 1.98 and 3.34 and 1.23 and 0.25 and 0.51 and 0.22 and 0.32
  α-SMA: 0.37 and 0.33 and 0.09 and 0.57 and 0.58 and 0.29
C57BL/6 mice [1]; [5]
  Lung function (Penh): 0.921 and 0.5921 and 0.7137 and 3.621 and 0.8031 and 0.5775 and 0.6428 and 0.5842 and 0.678 and 0.5758 and 0.618 and 0.6177 and 0.711
  Masson Trichrome's staining: 19.44 and 0.05 and 6.38 and 17.98 and 0.22 and 11.46 and 0.26 and 36.84 and 1 and 0.45
  Modified Ashcroft Score: 1.25 and 2.5 and 0.75 and 3 and 4.5 and 0.25
  collagen I: 0.04 and 2.29 and 0.08 and 0.17 and 0.07 and 0.11 and 0.36 and 0.22 and 2.99 and 3.49
  α-SMA: 0.2 and 0.91 and 0.22 and 0.38 and 0.09 and 0.78 and 0.06 and 0.41 and 2.61
C57BL/6 mice [1]; [6]
  Lung function (Penh): 0.81 and 0.4773 and 0.7792 and 0.5085 and 0.4976 and 0.9972 and 0.6276 and 0.4738 and 0.7711 and 0.8367 and 0.5642 and 0.8492 and 0.6495
  Masson Trichrome's staining: 54.82 and 0.37 and 1.9 and 3.57 and 0.51 and 0.16 and 12.49 and 1.77 and 9.46 and 7.1
  Modified Ashcroft Score: 1.5 and 3 and 6
  collagen I: 0.43 and 0.13 and 2.32 and 1.69 and 1.28 and 0.07 and 1.12 and 0.03 and 0.15 and 0.02
  α-SMA: 0.1 and 0.05 and 0.38 and 0.09 and 0.73 and 0.22 and 0.72 and 0.11 and 0.15 and 0.18
Healthy subjects
  Abdominal pain: 1 (5.6) [1]
  Alanine aminotransferase increased: 1 (5.6) [1]
  Alopecia: 0 [0]
  Any SAE: 0 [0]
  Any Severe TEAE: 0 [0]
  Any Treatment-Related Moderate TEAE: 0 [0]
  Any Treatment-Related SAE: 0 [0]
  Any Treatment-Related Severe TEAE: 0 [0]
  Aphthous ulcer: 1 (5.6) [1]
  Aspartate aminotransferase increased: 1 (5.6) [1]
  Back pain: 1 (5.6) [1]
  Blood creatine phosphokinase increased: 1 (5.6) [1]
  Catheter site bruise: 1 (5.6) [1]
  Catheter site inflammation: 1 (5.6) [1]
  Catheter site pain: 0 [0]
  Catheter site swelling: 1 (5.6) [1]
  Constipation: 1 (3.3) [1]
  Cough: 1 (3.3) [1]
  Diarrhoea: 1 (5.6) [1]
  Gastrointestinal disorder: 0 [0]
  Immune system disorders: 1 (5.6) [1]
  Lymph node palpable: 1 (5.6) [1]
  Medical device site irritation: 2 (6.7) [2]
  Nasal congestion: 1 (5.6) [1]
  Nausea: 1 (5.6) [1]
  Nightmare: 1 (5.6) [1]
  Paraesthesia: 0 [0]
  Phlebitis: 3 (10.0) [3]
  Pruritus: 1 (5.6) [1]
  Psychiatric disorders: 1 (5.6) [1]
  Rhinorrhoea: 0 [0]
  Seasonal allergy: 1 (5.6) [1]
  Skin mass: 1 (5.6) [1]
  Syncope: 1 (3.3) [1]
  Urticaria: 0 [0]
  Vascular disorders: 3 (10.0) [3]
MRC-5 cells
  pIC50: 7.57
C57BL/6 mice [2]; [7]
  Fibrosis area (sirius red positive area): 2.24 and 2.26 and 1.61 and 1.34 and 1.14 and 1.04
  Kidney hydroxyproline: 6.42 and 7.24 and 6.97 and 8.63 and 7.89 and 3.86 and 2.76 and 8.85
C57BL/6 mice [2]; [8]
  Fibrosis area (sirius red positive area): 0.48 and 0.7 and 0.89 and 0.94 and 0.99 and 0.64 and 0.93 and 1.12
  Kidney hydroxyproline: 4.39 and 2.86 and 3.32 and 6 and 3.14 and 6.84 and 3.33 and 3
C57BL/6 mice [2]; [9]
  Collagen Type 1 score: 2
  Fibrosis area (sirius red positive area): 0.44 and 0.53 and 0.81 and 0.2 and 0.68 and 0.43 and 0.38 and 0.73
  Kidney hydroxyproline: 2.37 and 2.39 and 2.44 and 2.78 and 2.29 and 3.08 and 2.31
C57BL/6 mice [2]; INS018_055 high dose group, value per mouse (501-508) over 5 photos
  Positive area (%), per mouse: 0.43% and 0.38% and 0.73% and 0.44% and 0.53% and 0.81% and 0.20% and 0.68%
C57BL/6 mice [2]; INS018_055 low dose group, value per mouse (301-308) over 5 photos
  Positive area (%), per mouse: 1.34% and 1.14% and 1.04% and 2.24% and 2.26% and 1.61%
C57BL/6 mice [2]; INS018_055 middle dose group, value per mouse (401-408) over 5 photos
  Positive area (%), per mouse: 0.94% and 0.99% and 0.64% and 0.93% and 1.12% and 0.48% and 0.70% and 0.89%
CD-1 mice
  LOAEL: 10 mg/kg
mice
  reduction of erythrocyte count: 19.8%
[3]
  pIC50: 6.60 and 6.49 and 6.40
